Source: ChEMBL document CHEMBL6109132, “Potent and Selective Human Constitutive Androstane Receptor Activator DL5055 Facilitates Cyclophosphamide-Based Chemotherapies” (J Med Chem, 2025)

The molecules below were run against T1, Nuclear receptor subfamily 1 group I member 3 (Homo sapiens, UniProt Q14994) (assay: Agonist activity at human CAR expressed in human HepG2 cells co-expressing CYP2B6 incubated for 23 hrs by Luciferase reporter gene assay). Details: not given; call rule not given here.
T1 sequence (Q14994 whole entry): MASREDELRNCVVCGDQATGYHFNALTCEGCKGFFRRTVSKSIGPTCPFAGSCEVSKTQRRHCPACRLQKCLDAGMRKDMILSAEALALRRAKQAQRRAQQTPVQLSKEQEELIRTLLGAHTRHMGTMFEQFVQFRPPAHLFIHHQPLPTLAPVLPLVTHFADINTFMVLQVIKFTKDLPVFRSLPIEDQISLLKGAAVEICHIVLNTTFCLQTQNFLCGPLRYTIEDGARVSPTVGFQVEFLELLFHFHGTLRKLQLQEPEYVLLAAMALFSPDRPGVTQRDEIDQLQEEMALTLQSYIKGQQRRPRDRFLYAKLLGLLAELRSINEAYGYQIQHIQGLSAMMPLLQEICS
Type: cell-based

Row | SMILES | EC50
1 | c1ccc2c(c1)CC(NCc1c(-c3ccc4ccccc4c3)nc3occn13)C2 | 670 nM
2 | O=C(N[C@H]1C[C@H](c2ccccc2)C1)c1c(-c2ccc3ccccc3c2)nc2occn12 | 1100 nM
3 | O=C(NCCc1ccc(Br)cc1)c1c(-c2ccc3ccccc3c2)nc2occn12 | 3500 nM
4 | O=C(NC1Cc2ccccc2C1)c1c(-c2ccc(F)cc2F)nc2occn12 | 440 nM
5 | O=C(NC1Cc2ccccc2C1)c1c(CCc2ccccc2)nc2occn12 | > 100000 nM
6 | O=C(NC1Cc2ccccc2C1)c1c(-c2ccc3c(c2)OCCO3)nc2occn12 | 750 nM
7 | O=C(Nc1c(-c2ccc3ccccc3c2)nc2occn12)C1Cc2ccccc2C1 | 1200 nM
8 | Cc1ccccc1CCNC(=O)c1c(-c2ccc3ccccc3c2)nc2occn12 | 830 nM
9 | O=C(OC1Cc2ccccc2C1)c1c(-c2ccc3ccccc3c2)nc2occn12 | 380 nM
10 | O=C(NC1Cc2ccccc2C1)c1c(-c2ccc(F)c(C(F)(F)F)c2)nc2occn12 | 18000 nM
11 | O=C(N[C@H]1C[C@@H](c2ccccc2)C1)c1c(-c2ccc3ccccc3c2)nc2occn12 | 330 nM
12 | O=C(NOCc1ccccc1)c1c(-c2ccc3ccccc3c2)nc2occn12 | 4400 nM
13 | O=C(NOCc1ccc(Cl)c(Cl)c1)c1c(-c2ccc3ccccc3c2)nc2occn12 | 350 nM
14 | O=C(NCC1Cc2ccccc2C1)c1c(-c2ccc(F)cc2F)nc2occn12 | 1900 nM
15 | O=C(NCC1Cc2ccccc2C1)c1c(-c2ccc3ccccc3c2)nc2occn12 | 210 nM
16 | O=C(NC1Cc2ccccc2C1)c1c(-c2ccc(Cl)cc2)nc2occn12 | 380 nM

The molecules below were run against T2, Nuclear receptor subfamily 1 group I member 2 (Homo sapiens, UniProt O75469) (assay: Activation of human PXR expressed in human HepG2 cells assessed as increase in CYP3A4 mRNA level at >1 uM incubated for 24 hrs by luciferase based analysis). Details: hepg2, 24 h.
T2 sequence (O75469 whole entry): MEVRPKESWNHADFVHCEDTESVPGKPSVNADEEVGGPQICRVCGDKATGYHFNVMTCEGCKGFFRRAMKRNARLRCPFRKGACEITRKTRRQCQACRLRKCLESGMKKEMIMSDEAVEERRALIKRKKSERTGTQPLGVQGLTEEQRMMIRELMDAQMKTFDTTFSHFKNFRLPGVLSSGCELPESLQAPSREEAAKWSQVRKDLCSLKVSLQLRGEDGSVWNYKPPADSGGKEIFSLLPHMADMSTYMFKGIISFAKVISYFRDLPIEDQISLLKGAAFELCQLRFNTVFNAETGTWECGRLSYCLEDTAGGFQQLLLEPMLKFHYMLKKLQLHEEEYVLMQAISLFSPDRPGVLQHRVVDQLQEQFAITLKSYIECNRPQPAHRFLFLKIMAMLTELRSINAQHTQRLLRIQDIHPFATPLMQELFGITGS
Type: cell-based

Row | SMILES | Activity
17 | c1ccc2c(c1)CC(NCc1c(-c3ccc4ccccc4c3)nc3occn13)C2 | Active
18 | Clc1ccc(-c2nc3sccn3c2/C=N/OCc2ccc(Cl)c(Cl)c2)cc1 | Active
